Residues, ends and D or L forms follow the SMILES beside them. *: point of attachment. For = O=C*
Columns and labels:
[1] = biological target: T1, β2AR-GFP with Gαsβ1γ2 on Ni beads (Homo sapiens, UniProt P07550); assay: ARG assembly assay on G protein coated beads, flow cytometry; type: biochemical; details: for slope of GFP/bead versus β2AR-GFP concentration: dobutamine relative to salbutamol
T1 construct: expressed in transfected cells; host or cells: receptor fusion: U937 cells, solubilized membranes
T1 sequence (P62873 2-340): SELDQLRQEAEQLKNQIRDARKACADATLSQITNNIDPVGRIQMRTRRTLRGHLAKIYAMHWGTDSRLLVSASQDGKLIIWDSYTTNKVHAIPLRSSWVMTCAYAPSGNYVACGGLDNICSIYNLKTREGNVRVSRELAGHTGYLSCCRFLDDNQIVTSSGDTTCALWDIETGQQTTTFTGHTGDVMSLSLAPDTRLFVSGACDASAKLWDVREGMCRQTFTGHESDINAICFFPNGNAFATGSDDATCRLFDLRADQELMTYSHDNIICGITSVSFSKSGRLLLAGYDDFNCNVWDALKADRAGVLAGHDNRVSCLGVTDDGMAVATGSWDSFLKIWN
T1 sequence (P07550 whole entry, the tested form may be a part): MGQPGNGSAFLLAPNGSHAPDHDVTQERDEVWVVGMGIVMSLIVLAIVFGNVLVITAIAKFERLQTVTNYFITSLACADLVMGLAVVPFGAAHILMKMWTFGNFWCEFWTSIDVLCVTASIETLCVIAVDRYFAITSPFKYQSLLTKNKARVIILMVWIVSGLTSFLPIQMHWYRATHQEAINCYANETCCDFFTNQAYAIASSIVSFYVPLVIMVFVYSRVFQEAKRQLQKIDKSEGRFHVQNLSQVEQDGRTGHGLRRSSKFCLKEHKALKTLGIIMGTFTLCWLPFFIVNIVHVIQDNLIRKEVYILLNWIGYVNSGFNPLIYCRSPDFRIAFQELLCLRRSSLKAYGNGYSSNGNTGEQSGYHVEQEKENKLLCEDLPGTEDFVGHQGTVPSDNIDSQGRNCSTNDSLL
T1 sequence (P59768 2-68, further chain): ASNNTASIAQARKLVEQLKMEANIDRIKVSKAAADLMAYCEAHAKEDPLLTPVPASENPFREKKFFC
T1 sequence (P63092 other isoform, or with tags, fused parts or gaps, further chain): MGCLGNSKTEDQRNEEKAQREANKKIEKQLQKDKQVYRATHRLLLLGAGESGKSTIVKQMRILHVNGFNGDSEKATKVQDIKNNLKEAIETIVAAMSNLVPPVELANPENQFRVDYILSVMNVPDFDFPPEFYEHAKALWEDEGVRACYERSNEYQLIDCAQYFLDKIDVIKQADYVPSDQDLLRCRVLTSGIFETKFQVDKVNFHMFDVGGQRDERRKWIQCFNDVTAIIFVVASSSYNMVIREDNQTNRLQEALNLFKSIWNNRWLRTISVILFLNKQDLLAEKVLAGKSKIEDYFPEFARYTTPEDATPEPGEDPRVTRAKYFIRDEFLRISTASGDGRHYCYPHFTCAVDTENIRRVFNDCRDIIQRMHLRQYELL
Description: ARG Assembly Assay on G Protein Coated Beads—Coating of the Ni beads with heterotrimeric G proteins has been described before in detail (10). Briefly, 25 pmol of the desired α subunit and 25 pmol of hexahistidine-tagged β1γ2 were mixed with 2.5 μl of a 50% slurry of DCNi beads (2.5×10^5 beads/μl) and 190 μl of HPSM containing 0.1% dodecyl maltoside and 1 mM dithiothreitol, then kept in suspension by rocking at 4–7° C. for one hour. The beads were then centrifuged for 30 seconds at 1,500×gmax, the supernatant was removed, and the beads were resuspended in 50 μl of the buffer. This provided 25 aliquots of 24,000 G protein coated beads, for 25 ARG assembly assays (some beads were lost to surfaces). A ten microliter ARG assembly assay generally consisted of two microliters of solubilized receptor preparation, two microliters of desired ligand, four microliters of HPSM containing 0.1% dodecyl maltoside, and two microliters of G protein coated beads. Nonspecific fluorescence was defined in the presence of 0.1 mM GTPγS. These suspensions were mixed on an orbital mixer for 2 hours, brought to 200 μl with HPSM containing 0.1% dodecyl maltoside, transferred to a 12×75 mm tube, and immediately analyzed by flow cytometry for bead fluorescence. For kinetic data, tubes were removed from the cytometer after twenty seconds, 2 μl of 10^−2 M GTPγS was added and mixed, and the tubes were returned to the cytometer for measurement of the bead fluorescence. The cytometer data were converted to alphanumeric form and binned into one second intervals using the FACSQuery program (available free from Bruce Edwards), which provides a series of mean channel fluorescence (MCF) values in an Excel file.

[2] = biological target: T2, FPR-GFP (R^F) with Gαi3β1H6γ2 on DCNi beads (Homo sapiens, UniProt P21462); assay: Standard LRG assembly assay with FPR-GFP on G protein beads, flow cytometry; type: biochemical
T2 construct: host or cells: receptor fusion: transfected cells (U937 named for FPR), solubilized membranes; β1H6γ2: Sf9 insect cells
T2 sequence (P21462 whole entry, the tested form may be a part): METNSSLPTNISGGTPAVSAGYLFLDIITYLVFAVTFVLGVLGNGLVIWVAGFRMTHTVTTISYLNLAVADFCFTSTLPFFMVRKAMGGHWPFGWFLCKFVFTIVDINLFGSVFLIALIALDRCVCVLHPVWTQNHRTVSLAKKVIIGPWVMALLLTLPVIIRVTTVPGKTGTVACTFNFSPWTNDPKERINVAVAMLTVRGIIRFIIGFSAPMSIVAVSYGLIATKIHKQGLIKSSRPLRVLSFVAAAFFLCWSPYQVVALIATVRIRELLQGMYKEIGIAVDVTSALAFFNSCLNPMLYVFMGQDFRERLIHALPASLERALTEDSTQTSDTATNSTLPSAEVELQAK
T2 sequence (P08754 2-354 partner limits assumed): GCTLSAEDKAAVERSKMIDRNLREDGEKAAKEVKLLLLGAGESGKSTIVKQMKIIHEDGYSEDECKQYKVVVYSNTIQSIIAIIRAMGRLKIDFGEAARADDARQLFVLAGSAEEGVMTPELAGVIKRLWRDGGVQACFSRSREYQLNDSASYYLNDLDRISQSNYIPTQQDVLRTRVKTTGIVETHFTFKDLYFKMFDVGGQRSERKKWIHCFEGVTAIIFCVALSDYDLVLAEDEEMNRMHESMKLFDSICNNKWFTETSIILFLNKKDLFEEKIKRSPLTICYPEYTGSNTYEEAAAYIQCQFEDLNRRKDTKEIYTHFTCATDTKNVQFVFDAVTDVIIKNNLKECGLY
T2 sequence (P62873 2-340 partner limits assumed): as the sequence (P62873 2-340) above
T2 sequence (P59768 2-68 partner limits assumed): as the sequence (P59768 2-68, further chain) above
Description: Standard LRG Assembly Assay. […] Each mixture was mixed by pipetting to ensure a uniform starting suspension of the beads in 96 V-well plates (Costar), and then mixed at low speed on a vortex mixer at 7° for two hours. The 10 μl assays were individually brought to 200 μl with 0.1% dodecyl maltoside in buffer A in 12×75 mm tubes for flow cytometric measurement of fluorescence of the beads. LRG assembly was defined as the difference between fluorescence without GTPγS and that with GTPγS. All determinations were done in duplicate.

[3] = test system: β2AR in membranes; details: membrane binding assays (3); cited from earlier work
[4] = test system: adenylyl cyclase activity via β2AR in membranes; details: membranes (3); cited from earlier work

Nc1nc2c(ncn2[C@@H]2O[C@H](COP(=O)(O)OP(=O)(O)OP(O)(O)=S)[C@@H](O)[C@H]2O)c(=O)[nH]1 [GTPγS, guanosine 5′-3-O-(thio)triphosphate]
fluorescence on G protein beads with GTPγS added ([1]; 40 nM β2AR-GFP, 1 mM isoproterenol, 0.1 mM GTPγS): about 10,000 β2AR-GFP/bead

CC(CCc1ccc(O)cc1)NCCc1ccc(O)c(O)c1 (stereo not shown) [dobutamine]
rate of ternary complex disassembly after GTPγS ([1]; 0.1 mM GTPγS): 0.09 s⁻¹ | maximal ARG/bead level relative to the full agonist isoproterenol ([1]; dose-response, 20 nM β2AR-GFP): ten | time course of ARG assembly ([1]; saturating agonist, 40 nM β2AR-GFP): ≤ 1 h | slope of GFP/bead versus β2AR-GFP concentration ([1]; saturating agonist): ⅔

CNC[C@H](O)c1ccc(O)c(O)c1 [epinephrine]
slope of GFP/bead versus β2AR-GFP concentration ([1]; saturating agonist): indistinguishable from isoproterenol

CSCC[C@H](NC=O)C(=O)N[C@@H](CC(C)C)C(=O)N[C@@H](Cc1ccccc1)C(=O)N[C@@H](Cc1ccccc1)C(=O)O [fMLFF] (For-MLFF-OH)
EC50 [2]: 27 nM | ratio of Kd (for LR) to EC50 (for LRG formation) [2]: 2.8

CC(Cc1ccc(O)cc1)NCC(O)c1ccc(O)c(O)c1 (stereo not shown) [hydroxybenzylisoproterenol]
percent ARG form [3]: 93% | efficacy (adenylyl cyclase activity compared to isoproterenol) [4]: 110%

CC(C)NCC(O)c1ccc(O)c(O)c1 (stereo not shown) [isoproterenol]
percent ARG form [3]: 80% | efficacy (adenylyl cyclase activity compared to isoproterenol) [4]: 100%

NC[C@H](O)c1ccc(O)c(O)c1 [norepinephrine]
slope of GFP/bead versus β2AR-GFP concentration ([1]; saturating agonist): indistinguishable from isoproterenol

CC(C)(C)NCC(O)c1ccc(O)c(CO)c1 (stereo not shown) [salbutamol]
efficacy (adenylyl cyclase activity compared to isoproterenol) [4]: 20%

CC(C)NCC(O)c1ccc(O)c(NS(C)(=O)=O)c1 (stereo not shown) [soterenol]
percent ARG form [3]: 58% | efficacy (adenylyl cyclase activity compared to isoproterenol) [4]: 8%

Source: patent US7232659B1, “Multiplex analysis for high throughput discrimination of GPCR agonists and antagonists” (STC.UNM, priority 2003, dated 2007)
